Measurements reported in patent publication US20080269241A1, “BICYCLIC AMINOPROPYL TETRAHYDRO-PYRAZOLO-PYRIDINE MODULATORS OF CATHEPSIN S” (priority 2007, published 2008).
pIC50: −log10 of the molar value.

biological target: T1, human cathepsin S (CatS) (Homo sapiens, UniProt P25774); assay: Recombinant human cathepsin S (CatS) fluorogenic substrate inhibition assay; type: biochemical; settings: not given
T1 construct: made in house; host or cells: baculovirus system (insect cells)
Description: Recombinant human cathepsin S (CatS) was expressed in the baculovirus system and purified in one step with a thiopropyl-sepharose column. […] The assay is run in 150 mM sodium acetate pH 5.0 containing 1.5 mM DTT and 150 mM NaCl. […] Measurements are taken every min for 20 min. The rate is calculated from the slope of the increase in fluorescence and the percent inhibition is calculated from this.

T1 sequence (P25774 115-331): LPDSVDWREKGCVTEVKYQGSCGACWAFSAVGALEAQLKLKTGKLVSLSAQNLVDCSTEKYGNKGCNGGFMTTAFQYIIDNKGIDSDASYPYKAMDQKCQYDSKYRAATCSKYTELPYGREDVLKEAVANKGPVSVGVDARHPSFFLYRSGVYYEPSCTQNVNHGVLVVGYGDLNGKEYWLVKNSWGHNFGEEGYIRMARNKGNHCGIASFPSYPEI

Row | SMILES | pIC50
1 | CN(C)C(=O)NCc1cc(-c2nn(CC(O)CN3CCC(n4c(=O)n(C)c5ccc(N(C)C)nc54)CC3)c3c2CN(S(C)(=O)=O)CC3)ccc1C(F)(F)F (stereo not drawn) [Example 147, 2-Dimethylamino-N-[5-(1-{3-[4-(5-Dimethylamino-1-methyl-2-oxo-1,2-dihydro-imidazo[4,5-b]pyridin-3-yl)-piperidin-1-yl]-2-hydroxy-propyl}-5-methanesulfonyl-4,5,6,7-tetrahydro-1H-pyrazolo[4,3-c]pyridin-3-yl)-2-trifluoromethyl-benzyl]-1,1-dimethyl-urea] | 6.85

same assay, conditions: recombinant human CatS, 10 μM Z-Valine-Valine-Arginine-AMC, pH 5.0; average of results obtained; read-out: CatS IC50

Row | SMILES | pIC50
2 | CC(=O)NCc1cc(-c2nn(CC(O)CN3CCC(n4c(=O)n(C)c5ccc(N(C)C)nc54)CC3)c3c2CN(S(C)(=O)=O)CC3)ccc1C(F)(F)F (stereo not drawn) [Example 143, N-[5-(1-{3-[4-(5-Dimethylamino-1-methyl-2-oxo-1,2-dihydro-imidazo[4,5-b]pyridin-3-yl)-piperidin-1-yl]-2-hydroxy-propyl}-5-methanesulfonyl-4,5,6,7-tetrahydro-1H-pyrazolo[4,3-c]pyridin-3-yl)-2-trifluoromethyl-benzyl]-acetamide] | 7.00
3 | CN(C)c1ccc2c(n1)n(C1CCN(CC(O)Cn3nc(-c4ccc(C(F)(F)F)c(CNC(=O)CO)c4)c4c3CCN(S(C)(=O)=O)C4)CC1)c(=O)n2C (stereo not drawn) [Example 152, 2-Hydroxy-N-[5-(1-{3-[4-(5-Dimethylamino-1-methyl-2-oxo-1,2-dihydro-imidazo[4,5-b]pyridin-3-yl)-piperidin-1-yl]-2-hydroxy-propyl}-5-methanesulfonyl-4,5,6,7-tetrahydro-1H-pyrazolo[4,3-c]pyridin-3-yl)-2-trifluoromethyl-benzyl]-acetamide] | 6.60
4 | CS(=O)(=O)N1CCc2c(c(-c3ccc(C(F)(F)F)c(CNC(=O)CN4CCS(=O)(=O)CC4)c3)nn2CCCN2CCC(N3CCCC3=O)CC2)C1 [Example 162, 2-(1,1-Dioxo-1λ^6-thiomorpholin-4-yl)-N-[5-(5-methanesulfonyl-1-{3-[4-(2-oxo-pyrrolidin-1-yl)-piperidin-1-yl]-propyl}-4,5,6,7-tetrahydro-1H-pyrazolo[4,3-c]pyridin-3-yl)-2-trifluoromethyl-benzyl]-acetamide] | 6.42
5 | CS(=O)(=O)N1CCc2c(c(-c3ccc(C(F)(F)F)c(CNc4nc5ccccc5[nH]4)c3)nn2CC(O)CN2CCC(N3CCCC3=O)CC2)C1 (stereo not drawn) [Example 175, 1-{1-[3-(3-{3-[(1H-Benzoimidazol-2-ylamino)-methyl]-4-trifluoromethyl-phenyl}-5-methanesulfonyl-4,5,6,7-tetrahydro-pyrazolo[4,3-c]pyridin-1-yl)-2-hydroxy-propyl]-piperidin-4-yl}-pyrrolidin-2-one] | 5.38
6 | CS(=O)(=O)N1CCc2c(c(-c3ccc(C(F)(F)F)c(Cn4cnnn4)c3)nn2CCCN2CCC(N3CCCC3=O)CC2)C1 [Example 176, 1-(1-{3-[5-Methanesulfonyl-3-(3-tetrazol-1-ylmethyl-4-trifluoromethyl-phenyl)-4,5,6,7-tetrahydro-pyrazolo[4,3-c]pyridin-1-yl]-propyl}-piperidin-4-yl)-pyrrolidin-2-one] | 5.88
7 | Cc1coc(NCc2cc(-c3nn(CCCN4CCC(N5CCCC5=O)CC4)c4c3CN(S(C)(=O)=O)CC4)ccc2C(F)(F)F)n1 [Example 177, 1-{1-[3-(5-Methanesulfonyl-3-{3-[(4-methyl-oxazol-2-ylamino)-methyl]-4-trifluoromethyl-phenyl}-4,5,6,7-tetrahydro-pyrazolo[4,3-c]pyridin-1-yl)-propyl]-piperidin-4-yl}-pyrrolidin-2-one] | 5.78
8 | CS(=O)(=O)N1CCc2c(c(-c3ccc(C(F)(F)F)c(CNC=O)c3)nn2CC(O)CN2CCC(N3CCCC3=O)CC2)C1 (stereo not drawn) [Example 178, N-[5-(1-{2-Hydroxy-3-[4-(2-oxo-pyrrolidin-1-yl)-piperidin-1-yl]-propyl}-5-methanesulfonyl-4,5,6,7-tetrahydro-1H-pyrazolo[4,3-c]pyridin-3-yl)-2-trifluoromethyl-benzyl]-formamide] | 5.78
9 | CS(=O)(=O)N1CCc2c(c(-c3ccc(C(F)(F)F)c(CNCCN4CCCCC4)c3)nn2CC(O)CN2CCC(N3CCCC3=O)CC2)C1 (stereo not drawn) [Example 179, 1-{1-[2-Hydroxy-3-(5-methanesulfonyl-3-{3-[(2-piperidin-1-yl-ethylamino)-methyl]-4-trifluoromethyl-phenyl}-4,5,6,7-tetrahydro-pyrazolo[4,3-c]pyridin-1-yl)-propyl]-piperidin-4-yl}-pyrrolidin-2-one] | 5.20
10 | CN1CCN(CC(=O)NCc2cc(-c3nn(CCCN4CCC(N5CCCC5=O)CC4)c4c3CN(S(C)(=O)=O)CC4)ccc2C(F)(F)F)CC1 [Example 180, N-[5-(5-Methanesulfonyl-1-{3-[4-(2-oxo-pyrrolidin-1-yl)-piperidin-1-yl]-propyl}-4,5,6,7-tetrahydro-1H-pyrazolo[4,3-c]pyridin-3-yl)-2-trifluoromethyl-benzyl]-2-(4-methyl-piperazin-1-yl)-acetamide] | 5.43
11 | CN(C)CCC(=O)NCc1cc(-c2nn(CCCN3CCC(N4CCCC4=O)CC3)c3c2CN(S(C)(=O)=O)CC3)ccc1C(F)(F)F [Example 181, 3-Dimethylamino-N-[5-(5-methanesulfonyl-1-{3-[4-(2-oxo-pyrrolidin-1-yl)-piperidin-1-yl]-propyl}-4,5,6,7-tetrahydro-1H-pyrazolo[4,3-c]pyridin-3-yl)-2-trifluoromethyl-benzyl]-propionamide] | 5.82
12 | CS(=O)(=O)N1CCc2c(c(-c3ccc(C(F)(F)F)c(CNC(=O)CN4CCCC4=O)c3)nn2CCCN2CCC(N3CCCC3=O)CC2)C1 [Example 182, N-[5-(5-Methanesulfonyl-1-{3-[4-(2-oxo-pyrrolidin-1-yl)-piperidin-1-yl]-propyl}-4,5,6,7-tetrahydro-1H-pyrazolo[4,3-c]pyridin-3-yl)-2-trifluoromethyl-benzyl]-2-(2-oxo-pyrrolidin-1-yl)-acetamide] | 6.05
13 | CS(=O)(=O)N1CCc2c(c(-c3ccc(C(F)(F)F)c(CNC(=O)CN4CCCC4)c3)nn2CCCN2CCC(N3CCCC3=O)CC2)C1 [Example 183, N-[5-(5-Methanesulfonyl-1-{3-[4-(2-oxo-pyrrolidin-1-yl)-piperidin-1-yl]-propyl}-4,5,6,7-tetrahydro-1H-pyrazolo[4,3-c]pyridin-3-yl)-2-trifluoromethyl-benzyl]-2-pyrrolidin-1-yl-acetamide] | 6.10
14 | CS(=O)(=O)N1CCc2c(c(-c3ccc(C(F)(F)F)c(CNC(=O)CN4CCC(O)C4)c3)nn2CCCN2CCC(N3CCCC3=O)CC2)C1 (stereo not drawn) [Example 184, 2-(3-Hydroxy-pyrrolidin-1-yl)-N-[5-(5-methanesulfonyl-1-{3-[4-(2-oxo-pyrrolidin-1-yl)-piperidin-1-yl]-propyl}-4,5,6,7-tetrahydro-1H-pyrazolo[4,3-c]pyridin-3-yl)-2-trifluoromethyl-benzyl]-acetamide] | 6.09
15 | CS(=O)(=O)N1CCc2c(c(-c3ccc(C(F)(F)F)c(CNC(=O)CO)c3)nn2CCCN2CCC(N3CCCC3=O)CC2)C1 [Example 187, 2-Hydroxy-N-[5-(5-methanesulfonyl-1-{3-[4-(2-oxo-pyrrolidin-1-yl)-piperidin-1-yl]-propyl}-4,5,6,7-tetrahydro-1H-pyrazolo[4,3-c]pyridin-3-yl)-2-trifluoromethyl-benzyl]-acetamide] | 5.74
16 | CS(=O)(=O)N1CCc2c(c(-c3ccc(C(F)(F)F)c(CNC(=O)Cn4cncn4)c3)nn2CCCN2CCC(N3CCCC3=O)CC2)C1 [Example 188, N-[5-(5-Methanesulfonyl-1-{3-[4-(2-oxo-pyrrolidin-1-yl)-piperidin-1-yl]-propyl}-4,5,6,7-tetrahydro-1H-pyrazolo[4,3-c]pyridin-3-yl)-2-trifluoromethyl-benzyl]-2-[1,2,4]triazol-1-yl-acetamide] | 6.23
17 | CS(=O)(=O)N1CCc2c(c(-c3ccc(C(F)(F)F)c(CNC(=O)Cc4ccncc4)c3)nn2CCCN2CCC(N3CCCC3=O)CC2)C1 [Example 189, N-[5-(5-Methanesulfonyl-1-{3-[4-(2-oxo-pyrrolidin-1-yl)-piperidin-1-yl]-propyl}-4,5,6,7-tetrahydro-1H-pyrazolo[4,3-c]pyridin-3-yl)-2-trifluoromethyl-benzyl]-2-pyridin-4-yl-acetamide] | 6.29
18 | Cn1ccnc1C(=O)NCc1cc(-c2nn(CC(O)CN3CCC(N4CCCC4=O)CC3)c3c2CN(S(C)(=O)=O)CC3)ccc1C(F)(F)F (stereo not drawn) [Example 190, 1-Methyl-1H-imidazole-2-carboxylic acid 5-(1-{2-hydroxy-3-[4-(2-oxo-pyrrolidin-1-yl)-piperidin-1-yl]-propyl}-5-methanesulfonyl-4,5,6,7-tetrahydro-1H pyrazolo[4,3-c]pyridin-3-yl)-2-trifluoromethyl-benzylamide] | 5.77
19 | Cc1ccc(C(=O)Nc2cc(-c3nn(CCCN4CCN(c5cccc(Cl)c5)CC4)c4c3CN(S(C)(=O)=O)CC4)ccc2Cl)cc1 [Example 198, N-[2-Chloro-5-(1-{3-[4-(3-chloro-phenyl)-piperazin-1-yl]-propyl}-5-methanesulfonyl-4,5,6,7-tetrahydro-1H-pyrazolo[4,3-c]pyridin-3-yl)-phenyl]-4-methyl-benzamide] | 6.39
20 | CN(C)c1ccc(C(=O)Nc2cc(-c3nn(CCCN4CCN(c5cccc(Cl)c5)CC4)c4c3CN(S(C)(=O)=O)CC4)ccc2Cl)cc1 [Example 199, N-[2-Chloro-5-(1-{3-[4-(3-chloro-phenyl)-piperazin-1-yl]-propyl}-5-methanesulfonyl-4,5,6,7-tetrahydro-1H-pyrazolo[4,3-c]pyridin-3-yl)-phenyl]-4-dimethylamino-benzamide] | 6.33
21 | CS(=O)(=O)N1CCc2c(c(-c3ccc(Cl)c(NC(=O)c4ccc(Cl)cc4)c3)nn2CCCN2CCN(c3cccc(Cl)c3)CC2)C1 [Example 200, 4-Chloro-N-[2-chloro-5-(1-{3-[4-(3-chloro-phenyl)-piperazin-1-yl]-propyl}-5-methanesulfonyl-4,5,6,7-tetrahydro-1H-pyrazolo[4,3-c]pyridin-3-yl)-phenyl]-benzamide] | 6.22
